The target in series [1] is T1, interaction between R1 and R2 (human RNR) (Homo sapiens, UniProt P23921).
T1 construct: host or cells: Escherichia coli (His-R1)
T1 sequence (P23921 1-792): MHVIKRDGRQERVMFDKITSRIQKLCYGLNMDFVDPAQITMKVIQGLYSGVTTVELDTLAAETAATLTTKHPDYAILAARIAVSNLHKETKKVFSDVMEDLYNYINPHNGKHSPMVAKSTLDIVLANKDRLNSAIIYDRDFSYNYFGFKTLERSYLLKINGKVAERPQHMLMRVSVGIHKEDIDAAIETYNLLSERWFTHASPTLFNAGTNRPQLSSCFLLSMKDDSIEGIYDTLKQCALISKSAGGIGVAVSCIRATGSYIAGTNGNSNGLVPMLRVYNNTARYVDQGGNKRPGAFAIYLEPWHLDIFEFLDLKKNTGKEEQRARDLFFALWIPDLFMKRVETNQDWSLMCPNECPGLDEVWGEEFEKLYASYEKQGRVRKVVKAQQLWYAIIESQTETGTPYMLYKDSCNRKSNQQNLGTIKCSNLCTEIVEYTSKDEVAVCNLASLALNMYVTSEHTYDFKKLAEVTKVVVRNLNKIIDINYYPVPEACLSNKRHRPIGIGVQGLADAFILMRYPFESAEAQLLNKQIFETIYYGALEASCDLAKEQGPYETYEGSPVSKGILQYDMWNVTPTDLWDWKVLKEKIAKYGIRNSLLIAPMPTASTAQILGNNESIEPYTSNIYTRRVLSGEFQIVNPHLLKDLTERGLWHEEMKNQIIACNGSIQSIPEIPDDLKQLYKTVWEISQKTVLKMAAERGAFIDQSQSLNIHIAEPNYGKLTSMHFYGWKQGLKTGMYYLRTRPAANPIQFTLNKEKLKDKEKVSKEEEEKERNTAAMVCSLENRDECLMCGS
Description: AlphaLISA binding assay (interaction between His-R1 and GST-R2). Particulars: recombinant R1 and R2; mean ± SD. A general note: Alpha assays give light when donor and acceptor beads are brought close together.

The test system of the next series is HCC38 and MV-4-11 cells. Description: Immunoblotting of DNA replication stress and apoptosis markers. In kind it is cell-based, human. The following applies: both cell lines. The protocol:
Because dATP is a critical metabolite for DNA replication, we next examined whether TAS1553 caused DNA replication stress. We evaluated phosphorylation of Chk1 at Ser345 in HCC38 and MV-4-11 cells by treating them with TAS1553 for 2 h. […] Because phosphorylated RPA2 at Thr21 binds to single-strand DNA at the stalled replication fork[42], TAS1553 may cause the replication fork stalling. To test this possibility, we analyzed the nuclear localization of phosphorylated RPA2 at Thr21.
Next, we examined the effect of TAS1553 on apoptosis induction in HCC38 and MV-4-11 cells. We treated TAS1553 at 1 or 10 µmol/L for 24 h and analyzed the time-dependent change of cleaved PARP and cleaved caspase-3 (Fig. 2g). Compared with control cells (0 h), phosphorylation of Chk1 at Ser345 was increased after 1 h of TAS1553 treatment at 1 and 10 μmol/L in both cell lines. Phosphorylation of RPA2 was also detected after 2 h of treatment with TAS1553 at 10 μmol/L. Following the induction of replication stress and fork stalling, cleaved PARP and cleaved caspase-3 levels were increased in both cell lines after 4 h of TAS1553 treatment at 10 μmol/L or after 8 h of treatment at 1 μmol/L.
Immunoblotting analysis was performed as reported previously. […] Proteins were separated by SDS-PAGE and analyzed by Western blotting. […] The signals were detected with the ImageQuant LAS 4010 (GE Healthcare UK Ltd.).
Background: Immunoblotting shows a protein as a band on a membrane.

The nature of a further series: Plasma exposure in rats. Particulars: nude rats. The method, then: First, we analyzed the exposure of TAS1553 when administered orally.
Next, we evaluated the antitumor activity of a high-dose administration of TAS1553 and cytarabine in rats bearing MV-4-11 xenografts. […] The rats were treated with cytarabine for 5 days at 16 and 32 mg/kg. […] In addition to the hematologic tumor, we evaluated the antitumor activity of TAS1553 in mice implanted with HCC38 cell line as a solid tumor model. […] Finally, TAS1553 was evaluated for its survival benefit in a mouse model. To achieve this, we established mice bone marrow cells harboring the human MLL-AF9 fusion gene, which is known as a driver gene for AML in humans as well as mice[48]. Mice were transplanted with the cells through the tail vein and the treatment with TAS1553 was started 11 days post-implantation.
F344/NJcl-rnu/rnu rats were orally administered with TAS1553 (two animals per group). The plasma samples were collected at each point. TAS1553 concentrations in plasma were measured with the LC-MS/MS.

The structures appear in SMILES notation.

A word on the IC50: it is the concentration that gives 50% inhibition.

Consider `Cc1ccc(F)c([C@@H](C)[C@H](NS(=O)(=O)c2ccc(Cl)cc2C(N)=O)c2n[nH]c(=O)o2)c1C` [TAS1553, 5-chloro-2-{N-[(1S,2R)-2-(6-fluoro-2,3-dimethylphenyl)-1-(5-oxo-4,5-dihydro-1,3,4-oxadiazol-2-yl)propyl]sulfamoyl}benzamide], for which the IC50 in series [1] was determined as 0.0396 ± 0.0042 µM. In addition, in the series on HCC38 and MV-4-11 cells (1 µmol/L, 2 h), the “phosphorylation of Chk1 at Ser345” value is listed as “markedly induced”. Also, in the series on HCC38 and MV-4-11 cells (after 4 h at 10 μmol/L or 8 h at 1 μmol/L), the “cleaved PARP and cleaved caspase-3 levels” value is reported as “increased”. For the same compound, in the series “Plasma exposure in rats”, the “plasma concentration after single oral dose” value is recorded as “dose-dependent rise”.

Values taken from paper PMC9184620, “TAS1553, a small molecule subunit interaction inhibitor of ribonucleotide reductase, exhibits antitumor activity by causing DNA replication stress” (Communications Biology, 2022).
